In PMC6556873, “Rapid Covalent-Probe Discovery by Electrophile-Fragment Screening” (Journal of the American Chemical Society, 2019):
Read-outs that look alike come from different tables or passages of the source.

Key:
in vitro [1] = assay: in vitro; design: species or system HB2, CCD841; conditions: human, hek293 cells
in vitro [2] = assay: in vitro; design: species or system CCD841, HEK293; conditions: human, hb2 cells, read-out: HB-2 Cells Viability (%)
NUDT7 = biological target: T1, NUDT7 (Homo sapiens, UniProt P0C024); design: Intact protein LC/MS covalent labelling, fragments in pools of five, 200 uM each, 4 °C; conditions: 24 h, 4 °C, pool of five; 200 µM; covalent
T1 construct: residues 14-235, E. coli, pNIC28-Bsa4, N-terminal His6 tag removed by TEV, construct 26672 Da

PCAF = biological target: T2, PCAF (Homo sapiens, UniProt Q92831); design: Intact protein LC/MS covalent labelling, fragments in pools of five, 200 uM each, 4 °C; conditions: 24 h, 4 °C, pool of five; 200 µM; covalent
T2 construct: gene KAT2B

BSA = biological target: T3, BSA (Bos taurus, UniProt P02769); design: Intact protein LC/MS covalent labelling, fragments in pools of five, 200 uM each, 4 °C; conditions: 24 h, 4 °C, pool of five; 200 µM; covalent
T3 construct: gene ALB

OTUB2 (OTUB2A) = biological target: T4, OTUB2 (OTUB2A) (Homo sapiens, UniProt Q96DC9); design: Intact protein LC/MS covalent labelling, fragments in pools of five, 200 uM each, 4 °C; conditions: 24 h, 4 °C, pool of five; 200 µM; covalent
T4 construct: full length residues 1-234, E. coli BL21(DE3)-R3, His tag removed by TEV, construct 27312 Da
T4 sequence (Q96DC9 1-234): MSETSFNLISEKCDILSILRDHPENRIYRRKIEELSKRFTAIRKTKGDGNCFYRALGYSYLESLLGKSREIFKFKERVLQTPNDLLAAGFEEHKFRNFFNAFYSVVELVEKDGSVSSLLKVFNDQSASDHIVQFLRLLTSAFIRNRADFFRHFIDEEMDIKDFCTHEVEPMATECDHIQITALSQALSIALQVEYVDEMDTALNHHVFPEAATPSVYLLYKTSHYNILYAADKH

in vitro [3] = assay: in vitro; design: species or system HB2, HEK293; conditions: human, ccd841 cells

T1 sequence (P0C024 14-235): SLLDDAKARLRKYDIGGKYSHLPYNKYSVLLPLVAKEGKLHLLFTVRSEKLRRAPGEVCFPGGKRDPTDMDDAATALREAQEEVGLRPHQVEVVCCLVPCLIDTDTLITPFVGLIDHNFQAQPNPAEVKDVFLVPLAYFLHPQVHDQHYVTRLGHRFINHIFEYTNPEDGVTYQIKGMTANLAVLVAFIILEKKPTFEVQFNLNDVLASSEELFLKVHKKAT
T2 sequence (Q92831 whole entry, the tested form may be a part): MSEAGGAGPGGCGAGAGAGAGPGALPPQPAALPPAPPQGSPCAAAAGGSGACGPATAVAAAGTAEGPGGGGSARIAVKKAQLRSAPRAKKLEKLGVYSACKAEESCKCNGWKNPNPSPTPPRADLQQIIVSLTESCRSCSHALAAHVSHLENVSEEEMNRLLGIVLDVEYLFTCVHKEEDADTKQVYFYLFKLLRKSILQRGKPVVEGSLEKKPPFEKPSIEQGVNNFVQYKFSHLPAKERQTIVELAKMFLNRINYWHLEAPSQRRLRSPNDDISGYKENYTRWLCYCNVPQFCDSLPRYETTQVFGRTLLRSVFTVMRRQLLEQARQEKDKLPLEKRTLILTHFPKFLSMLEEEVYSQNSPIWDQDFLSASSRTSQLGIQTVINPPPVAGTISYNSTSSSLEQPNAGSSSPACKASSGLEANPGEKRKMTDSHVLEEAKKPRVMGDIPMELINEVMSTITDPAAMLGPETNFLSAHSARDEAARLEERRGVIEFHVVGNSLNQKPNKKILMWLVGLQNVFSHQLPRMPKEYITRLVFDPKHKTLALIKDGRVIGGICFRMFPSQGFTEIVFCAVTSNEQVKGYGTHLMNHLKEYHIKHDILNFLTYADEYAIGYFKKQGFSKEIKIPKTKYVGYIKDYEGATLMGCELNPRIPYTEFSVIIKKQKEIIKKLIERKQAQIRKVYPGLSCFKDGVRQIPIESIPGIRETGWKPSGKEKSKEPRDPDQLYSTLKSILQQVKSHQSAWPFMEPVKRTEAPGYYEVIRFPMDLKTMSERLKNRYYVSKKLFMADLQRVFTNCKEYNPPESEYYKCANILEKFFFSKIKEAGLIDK
T3 sequence (P02769 whole entry, the tested form may be a part): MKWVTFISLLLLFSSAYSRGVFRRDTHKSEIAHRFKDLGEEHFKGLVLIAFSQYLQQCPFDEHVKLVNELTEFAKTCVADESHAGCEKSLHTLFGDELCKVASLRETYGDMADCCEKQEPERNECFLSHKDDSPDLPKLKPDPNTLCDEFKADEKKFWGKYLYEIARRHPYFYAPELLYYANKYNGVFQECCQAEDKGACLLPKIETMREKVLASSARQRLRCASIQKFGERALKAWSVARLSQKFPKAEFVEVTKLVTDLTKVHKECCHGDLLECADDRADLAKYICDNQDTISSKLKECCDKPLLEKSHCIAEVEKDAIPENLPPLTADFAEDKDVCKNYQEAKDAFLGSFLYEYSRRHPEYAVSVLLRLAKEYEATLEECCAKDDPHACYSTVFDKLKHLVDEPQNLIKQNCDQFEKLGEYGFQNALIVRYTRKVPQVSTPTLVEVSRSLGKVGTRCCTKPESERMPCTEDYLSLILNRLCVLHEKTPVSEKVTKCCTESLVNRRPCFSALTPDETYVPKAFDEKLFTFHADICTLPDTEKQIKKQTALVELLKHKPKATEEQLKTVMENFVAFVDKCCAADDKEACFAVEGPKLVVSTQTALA

| SMILES | viability at 48 h, 10 µM (in vitro [1]) | viability at 48 h, 10 µM (in vitro [2]) | NUDT7 (NUDT7) | PCAF (PCAF) | BSA (BSA) | OTUB2 (OTUB2 (OTUB2A)) | viability at 48 h, 10 µM (in vitro [3]) |
| --- | --- | --- | --- | --- | --- | --- | --- |
| O=C(CCl)NC(=O)NCc1ccco1 [PCM-0102494] | 86.6% | 75.2% | 0 | 0 | 0 | 0 | 85.4% |
| NC(=O)C1CCCN(C(=O)CCl)C1 (stereo not drawn) [PCM-0102495] | 81.7% | 92.7% | 0 | 0 | 0 | 0 | 93% |
| Cl.O=C(CCl)NCc1cccnc1 [PCM-0102497] | 107% | 106% | 0 | 0 | 0 | 0.05 | 90.2% |
| CC12CCC(CC1=NNC(=O)CCl)C2(C)C (stereo not drawn) [PCM-0102498] | 2.2% | 25.9% | 0 | 0 | 0 | 0 | 14.6% |
| C=CC(=O)Nc1ccc2c(c1)NC(=O)CO2 [PCM-0102499] | 71.7% | 104% | 0.1 | 0 | 0 | 0 | 108% |
| Cc1cc(NC(=O)CCl)no1 [PCM-0102500] | 60.3% | 66.8% | 0 | 0 | 0 | 0.35 | 73.3% |
| Cc1nn(-c2ccccc2)c(C)c1NC(=O)CCl [PCM-0102501] | 62.2% | 83.2% | 0.09 | 0 | 0 | 0.09 | 68.3% |
| CC(C)CNC(=O)NC(=O)CCl [PCM-0102502] | 52.7% | 78% | 0 | 0 | 0 | 0 | 80.7% |
| C=CC(=O)N1CCn2c(cc3ccc(Cl)cc32)C1 [PCM-0102503] | 74.4% | 98.2% | 0 | 0 | 0 | 0 | 102% |
| CC(C)NC(=O)NC(=O)CCl [PCM-0102504] | 66.9% | 92% | 0 | 0 | 0 | 0 | 81.5% |
| O=C(CCl)Nc1ccc(Br)cc1Cl [PCM-0102505] | 31.6% | 41.7% | 0.59 | 0 | 0 | 0.07 | 74.6% |
| O=C(CCl)Nc1ccccc1I [PCM-0102509] | 99.4% | 95.5% | 0 | 0 | 0.1 | 0 | 91.1% |
| O=C(CCl)NNC(=O)c1ccccc1F [PCM-0102510] | 93.1% | 98% | 0 | 0 | 0 | 0.52 | 72.7% |
| C=CC(=O)N1CCN(c2ccnc(-c3ccccc3)n2)CC1 [PCM-0102515] | 73% | 88.8% | 0 | 0 | 0 | 0 | 105% |
| CC(C)N(CC(F)(F)F)C(=O)CCl [PCM-0102516] | 106% | 103% | 0 | 0 | 0 | 0 | 109% |
| CNC(=O)C1CCCN1C(=O)CCl (stereo not drawn) [PCM-0102518] | 67.8% | 101% | 0 | 0 | 0 | 0 | 93.3% |
| C=CC(=O)N1CCCN(C(=O)C2CCCO2)CC1 (stereo not drawn) [PCM-0102519] | 95.5% | 98.2% | 0 | 0 | 0 | 0 | 108% |

| SMILES | viability at 48 h, 10 µM (in vitro [1]) | viability at 48 h, 10 µM (in vitro [2]) | NUDT7 (NUDT7) | PCAF (PCAF) | BSA (BSA) | OTUB2 (OTUB2 (OTUB2A)) | viability at 48 h, 10 µM (in vitro [3]) |
| --- | --- | --- | --- | --- | --- | --- | --- |
| C=CC(=O)N1CCC2(CC1)NC(=O)C1(CCCCC1)N2 [PCM-0102520] | 107% | 101% | 0 | 0 | 0 | 0 | 106% |
| C=CC(=O)N1CCCC(NS(C)(=O)=O)C1 (stereo not drawn) [PCM-0102522] | 106% | 106% | 0 | 0 | 0 | 0 | 112% |
| C=CC(=O)NCC1CCOC2(CCC2)C1 (stereo not drawn) [PCM-0102523] | 90.4% | 102% | 0 | 0 | 0 | 0 | 117% |
| C=CC(=O)N1CCC(C(=O)c2ccc3c(c2)NC(=O)C(C)O3)CC1 (stereo not drawn) [PCM-0102524] | 80.6% | 103% | 0 | 0 | 0 | 0 | 99.7% |
| C=CC(=O)N1CCC(c2nc(C(F)(F)F)cs2)CC1 [PCM-0102525] | 96.6% | 95.8% | 0 | 0 | 0 | 0 | 128% |
| C=CC(=O)NC(C#N)C(C)C (stereo not drawn) [PCM-0102529] | 89.7% | 102% | 0 | 0 | 0 | 0 | 98.9% |
| C=CC(=O)Nc1cc(N)ccc1F [PCM-0102533] | 75.6% | 108% | 0 | 0 | 0 | 0 | 113% |
| CC(=O)N1CCN(C(=O)CCl)CC1 [PCM-0102535] | 37.6% | 85.7% | 0.06 | 0 | 0.2 | 0 | 82.8% |
| CC(C)(C)c1cc(NC(=O)CCl)n(-c2ccccc2)n1 [PCM-0102536] | 10.6% | 33.5% | 0 | 0 | 0 | 0.14 | 65.2% |
| C=CC(=O)Nc1ccc(Cl)cc1 [PCM-0102537] | 81.5% | 95.5% | 0.12 | 0 | 0 | 0 | 89.3% |
| Cc1ccc(N(C(=O)CCl)C2C=CS(=O)(=O)C2)cc1 (stereo not drawn) [PCM-0102539] | 4.7% | 23.3% | 0.33 | 0 | 0 | 0.16 | 31.5% |
| CC(C)(C)NC(=O)NC(=O)CCl [PCM-0102540] | 113% | 111% | 0 | 0 | 0 | 0 | 140% |
| COC(=O)c1c(NC(=O)CCl)sc2c1CCC2 [PCM-0102542] | 18.6% | 18.1% | 0.14 | 0 | 0 | 0 | 70.6% |
| C=CC(=O)Nc1cc(-c2ccnn2C)ccc1C [PCM-0102543] | 93.5% | 103% | 0 | 0 | 0 | 0 | 134% |
| O=C(CCl)Nc1cc([N+](=O)[O-])ccc1F [PCM-0102544] | 1.8% | 1.6% | 0 | 0 | 0 | 0.31 | 2.5% |
| CC1(C)C(=O)Nc2ccccc2N1C(=O)CCl [PCM-0102546] | 57.2% | 48% | 0.18 | 0 | 0 | 0.32 | 78.5% |
